For data set [1], the system named is headache (migraine, cluster, chronic migrainous, chronic tension-type). From the text:
Forty consecutive patients who presented to the headache clinic with a moderate or severe headache of any type (4 or higher on a verbal 1 to 10 scale) were enrolled in this study after an informed consent. […] Patients with renal, cardiac, diabetic or other medical problems were excluded. The international Headache Society classification was used to diagnose all patients.^23 Age-matched healthy volunteers served as control subjects.
Immediately prior to the magnesium infusion a blood sample of serum IMg^2+, total magnesium (TMg) and ionized calcium (ICa^2+) was drawn under anaerobic conditions. The laboratory personnel (B.T.A., B.M.A.) were blinded as the blood samples were not accompanied by any clinical information, while the clinician administering the infusion (A.M.) received test results several days after the completion of the evaluation. Serum levels of IMg^2+ and ICa^2+ were measured using ion-selective electrodes with a NOVA Biomedical Stat Profile 8 Analyzer.^16-18 The lower limit of normal for IMg^2+ levels in this study was 0.55/mmol/L. The normal range for the ICa^2+/IMg^2+ ratio is 1.92-2.08.
Headache intensity was measured on a verbal 1 to 10 scale prior to and 15 minutes after the infusion. A greater than 50% reduction of pain intensity was considered a positive response. The recurrence or worsening of a headache within the following 24 was determined in a telephone interview on the following day. The clinical response to the IMg^2+ levels was correlated. The correlation was considered to be positive if patients with a normal IMg^2+ level (≧0.55 mmol/L) had no relief or less than 24 hrs of relief. In patients with low IMg^2+ levels (<0.55 mmol/L), a correlation was considered positive only if relief lasted for more than 24 hrs.
Mean values±S.E.M. were calculated and compared for statistical significance by a Student's t-test, ANOVA with Scheffe's contrast test, analysis of co-variance for age, and linear regression analysis, where appropriate. Chi-Square tests were also utilized where appropriate. A p-value of less than 0.05 was considered significant.

Data set [2] has as its system chronic migrainous headache. The data set can be described thus: Therapies tried in patient #27 for two months before the MgSO4 infusion. In kind it is in vivo, human. Particulars: acetaminophen 1000 mg or ibuprofen 400 mg four times/day, nabumetone 1000 mg/day for two weeks, cyproheptadine 4 mg nightly for two weeks. As for the experimental part:
Long-term results in patients with intermittent migraine attacks is difficult to gauge because of the variable frequency of migraines in these patients. Responses in patients with chronic headaches also varied. […] Various therapists (i.e., acetaminophen—1000 mg or ibuprofen—400 mg-four times/day; nabumetone— 1000 mg/day for two weeks; cyproheptadine—4 mg nightly for two weeks; physical exercise) were tried in this patient for two months prior to the infusion with no relief.

Data set [3] in a line: Oral glucose loading: ionized, total and intracellular free magnesium. In kind it is in vivo, human. To be noted: oral glucose 100 gm. How it is done:
Ionized magnesium, serum total magnesium, and plasma renin activity (PRA) in fasting normotensive (NT) (n=20), essential hypertensive (n=28) subjects was monitored before, and 60, 90, 120 and 180 minutes after oral glucose loading (100 gm). Results were compared to intracellular free magnesium values obtained at the same time intervals as measured using ^31P-NMR spectroscopy.

[4] abbreviates: of the 40 patients given IV MgSO4.

Results on 5 compounds are retold here after patent publication US20010010827A1, “Method and composition for treatment of headache using magnesium” (priority 1991, published 2001).

Where two headings read alike, the source gives them in different places.

`O=S(=O)([O-])[O-].[Mg+2]` [MgSO4, magnesium sulfate]: the other side effects result in data set [1] (40 patients, IV infusion) is on record as “No other side effects were noted”. In addition, the “side effect during the IV infusion” value in data set [1] (almost all patients) was “flushed feeling”. Besides, the duration of relief entry in data set [1] (cluster headache, repeat infusions of 1 to 3 gram each) was “approximately 48 hours”; in data set [1] (most patients whose headache returned within 24 hours), 1 to 2 h; in data set [1] (patient #17, chronic cluster headache, after the initial and each of three subsequent infusions), 28 h; in data set [1] (patient #28, chronic migrainous headache), 24 h; in data set [1] (the other four cluster headache patients), “two-seven”. In addition, the “Return Within 24 hr” value in data set [1] (individual chronic tension headache patients, recurrence or worsening of headache within 24 hr) is on record as “N”. Further, in data set [1] (individual cluster headache patients, 1 g MgSO4 IV over 5 min, positive = greater than 50% reduction of pain intensity 15 min after infusion), the Response entry is “Y”. Besides, the “onset of improvement of headache” value in data set [1] (most patients) was “began to improve before the end of infusion”. Further, the “number of patients with persistent relief of headache beyond 24 hours” value in data set [1] (of the 32 initial responders) came out at 18 patients. Besides, the “number of patients with at least a 50% initial reduction of pain intensity” value in data set [1] (setting [4]) was found to be 32 patients. The “patients with at least a 50% initial reduction of pain intensity” value in data set [1] (setting [4]) was determined as 80%. The persistence of response entry in data set [1] (patient #27 (youngest patient), single infusion) is reported as “positive response to Mg that persists five months later”. Also, in data set [1] (patients #18 and #19, episodic clusters, single infusion), the “outcome of cluster episode” value was “aborted the entire cluster episode”. For the same compound, the “time to return of headaches” value in data set [1] (patients #24 and #25, episodic clusters) was no more than 24 h. Moreover, in data set [1] (within 5 min of infusion), the “patients with complete elimination of pain” value is reported as 80%.

In the case of `CC(=O)Nc1ccc(O)cc1` [acetaminophen], the relief of headache result in data set [2] is listed as “no relief”.

As for `O=C[C@H](O)[C@@H](O)[C@H](O)[C@H](O)CO` [glucose], the “total magnesium values after glucose loading” value in data set [3] is recorded as “did not differ”. Also, the “ionized Mg2+ levels after oral glucose loading” value in data set [3] (elevated from 0.60±0.02, ion selective electrode, p<0.01) turned out to be 0.64 ± 0.02 mM. For the same compound, the “intracellular Mg after oral glucose loading” value in data set [3] (lowered from 219± 12, 31P-NMR, p<0.01) is 193 ± 13 µM.

For `CC(C)Cc1ccc(C(C)C(=O)O)cc1` (centres unmarked) [ibuprofen], in data set [2], the relief of headache entry is “no relief”.

Consider `COc1ccc2cc(CCC(C)=O)ccc2c1` [nabumetone], for which the relief of headache result in data set [2] is “no relief”.
